Assay results from PMC6270165, “Synthesis and Biological Evaluation of 3-Benzisoxazolyl-4-indolylmaleimides as Potent, Selective Inhibitors of Glycogen Synthase Kinase-3β” (Molecules, 2013).

Tests used:
GSK-3β = target: T1, GSK-3β (Homo sapiens, UniProt P49841); experiment: GSK-3β kinase assay (Z'-LYTE Kinase Assay kit Ser/Thr 9 Peptide); type: biochemical
T1 construct: GST (N, cleaved yes); made in house; host or cells: Escherichia coli BL21-Codon Plus (DE3)
Description: (§1) GSK3β belongs to CMGC family. Here, the other family members were used to evaluate the selectivity of GSK3β inhibitors, including PKC-epsilon (AGC family), JAK2 (TK family), Braf (TKL family), DRAK2 (CAMK family) and IKKβ (other family).The recombinant GST-GSK-3βprotein was expressed in Escherichia coli strain BL21-Codon Plus (DE3), purified by GSTrap affinity chromatography, and cleaved by thrombin. The GSK-3β kinase assay was carried out with the Z´-LYTETM Kinase Assay kit Ser/Thr 9 Peptide substrate (Invitrogen, Grand, NY, USA) in 10 μL reaction volume containing 50 nM enzyme, 30 μM ATP and 2 μM substrate peptide. Drak2 Proteins were presented by professor Jiang-ping Wu (Laboratory of Immunology, Research Centre, CHUM, Notre Dame Hospital, Pavilion DeSève). The Drak2 kinase reaction was performed in a final assay volume of 3.4 μL using the ADP-GLO Kinase Assay Kit (Promega, Madison, WI, USA), according the ADP-GLO protocol and read on an EnVision plate reader. The recombinant PKC-epsilon, IKKβ, and JAK2 with N-terminal His-tag were expressed using baculovirus expression system and purified with Ni-Beads. BRAF protein was from Carna Biosciences, Inc. (Kobe Port Island, Japan). And the related kinase reactions were performed in a final assay volume of 10 μL using the related HTRF Assay Kit (Cisbio, Codolet, France). Reactions were according the HTRF protocol and read on an EnVision plate reader. All reactions were carried out in triplicate. […] Data were expressed as mean ± SE.

PKC-epsilon = target: T2, PKC-epsilon (Homo sapiens, UniProt Q02156); experiment: PKC-epsilon kinase assay (HTRF); type: biochemical; conditions: read-out: PKC-epsilon inhibition% at 0.8 μg/mL (~2 μM)
T2 construct: His-tag (N); made in house
T2 sequence (Q02156 1-737): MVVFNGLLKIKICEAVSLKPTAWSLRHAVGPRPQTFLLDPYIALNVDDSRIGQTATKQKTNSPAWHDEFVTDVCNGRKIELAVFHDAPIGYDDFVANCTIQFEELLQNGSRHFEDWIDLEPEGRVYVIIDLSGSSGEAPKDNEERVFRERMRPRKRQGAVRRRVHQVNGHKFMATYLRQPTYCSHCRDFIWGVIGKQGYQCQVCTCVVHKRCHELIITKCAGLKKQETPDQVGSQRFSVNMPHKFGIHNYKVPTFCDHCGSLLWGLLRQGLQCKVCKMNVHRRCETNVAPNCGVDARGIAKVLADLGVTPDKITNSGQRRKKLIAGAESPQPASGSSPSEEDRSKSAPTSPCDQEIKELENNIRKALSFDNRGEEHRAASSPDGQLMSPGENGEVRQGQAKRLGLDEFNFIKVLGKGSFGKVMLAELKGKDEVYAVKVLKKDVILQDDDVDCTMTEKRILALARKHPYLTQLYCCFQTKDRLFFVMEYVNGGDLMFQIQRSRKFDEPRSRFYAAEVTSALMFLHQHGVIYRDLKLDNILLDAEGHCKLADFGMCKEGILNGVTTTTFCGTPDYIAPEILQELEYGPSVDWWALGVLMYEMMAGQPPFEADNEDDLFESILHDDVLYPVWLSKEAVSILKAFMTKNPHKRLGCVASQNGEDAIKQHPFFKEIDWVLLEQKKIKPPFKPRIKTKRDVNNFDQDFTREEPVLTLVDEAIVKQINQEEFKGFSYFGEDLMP
Description: as §1

JAK2 = target: T3, JAK2 (Homo sapiens, UniProt O60674); experiment: JAK2 kinase assay (HTRF); type: biochemical; conditions: read-out: JAK2 inhibition% at 0.8 μg/mL (~2 μM)
T3 construct: His-tag (N); made in house
T3 sequence (O60674 whole entry): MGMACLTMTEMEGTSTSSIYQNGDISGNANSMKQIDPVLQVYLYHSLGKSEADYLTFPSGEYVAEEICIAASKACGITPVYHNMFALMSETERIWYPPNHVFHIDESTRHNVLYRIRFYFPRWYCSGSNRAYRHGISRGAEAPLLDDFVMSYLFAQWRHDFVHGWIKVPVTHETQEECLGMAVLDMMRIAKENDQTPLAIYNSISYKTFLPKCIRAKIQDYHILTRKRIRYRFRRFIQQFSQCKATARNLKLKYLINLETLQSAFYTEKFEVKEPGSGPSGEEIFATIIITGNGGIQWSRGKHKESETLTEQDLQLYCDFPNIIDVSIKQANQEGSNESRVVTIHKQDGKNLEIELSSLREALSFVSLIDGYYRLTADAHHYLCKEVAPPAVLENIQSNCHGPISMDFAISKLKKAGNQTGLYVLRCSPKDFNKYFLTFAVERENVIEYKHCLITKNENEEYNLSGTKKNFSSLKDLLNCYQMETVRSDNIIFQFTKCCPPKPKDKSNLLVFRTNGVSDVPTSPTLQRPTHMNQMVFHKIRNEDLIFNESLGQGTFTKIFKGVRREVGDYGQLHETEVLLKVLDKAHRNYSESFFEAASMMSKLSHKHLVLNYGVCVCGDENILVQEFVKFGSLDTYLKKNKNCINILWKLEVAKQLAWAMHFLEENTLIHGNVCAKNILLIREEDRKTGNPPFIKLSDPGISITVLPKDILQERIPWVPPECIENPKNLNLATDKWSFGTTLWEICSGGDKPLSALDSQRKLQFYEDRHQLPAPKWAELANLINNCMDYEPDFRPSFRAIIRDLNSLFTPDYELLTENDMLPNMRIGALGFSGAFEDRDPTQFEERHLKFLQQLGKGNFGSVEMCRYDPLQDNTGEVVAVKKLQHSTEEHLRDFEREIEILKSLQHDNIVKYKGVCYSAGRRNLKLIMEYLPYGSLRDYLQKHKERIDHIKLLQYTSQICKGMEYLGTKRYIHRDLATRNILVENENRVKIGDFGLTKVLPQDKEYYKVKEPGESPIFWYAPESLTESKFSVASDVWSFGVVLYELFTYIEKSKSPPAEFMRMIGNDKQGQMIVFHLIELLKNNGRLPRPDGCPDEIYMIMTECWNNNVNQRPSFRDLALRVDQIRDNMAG
Description: as §1

BRAF = target: T4, BRAF (Homo sapiens, UniProt P15056); experiment: BRAF kinase assay (HTRF); type: biochemical; conditions: read-out: BRAF inhibition% at 0.8 μg/mL (~2 μM)
T4 construct: purchased Carna Biosciences, Inc
T4 sequence (P15056 whole entry): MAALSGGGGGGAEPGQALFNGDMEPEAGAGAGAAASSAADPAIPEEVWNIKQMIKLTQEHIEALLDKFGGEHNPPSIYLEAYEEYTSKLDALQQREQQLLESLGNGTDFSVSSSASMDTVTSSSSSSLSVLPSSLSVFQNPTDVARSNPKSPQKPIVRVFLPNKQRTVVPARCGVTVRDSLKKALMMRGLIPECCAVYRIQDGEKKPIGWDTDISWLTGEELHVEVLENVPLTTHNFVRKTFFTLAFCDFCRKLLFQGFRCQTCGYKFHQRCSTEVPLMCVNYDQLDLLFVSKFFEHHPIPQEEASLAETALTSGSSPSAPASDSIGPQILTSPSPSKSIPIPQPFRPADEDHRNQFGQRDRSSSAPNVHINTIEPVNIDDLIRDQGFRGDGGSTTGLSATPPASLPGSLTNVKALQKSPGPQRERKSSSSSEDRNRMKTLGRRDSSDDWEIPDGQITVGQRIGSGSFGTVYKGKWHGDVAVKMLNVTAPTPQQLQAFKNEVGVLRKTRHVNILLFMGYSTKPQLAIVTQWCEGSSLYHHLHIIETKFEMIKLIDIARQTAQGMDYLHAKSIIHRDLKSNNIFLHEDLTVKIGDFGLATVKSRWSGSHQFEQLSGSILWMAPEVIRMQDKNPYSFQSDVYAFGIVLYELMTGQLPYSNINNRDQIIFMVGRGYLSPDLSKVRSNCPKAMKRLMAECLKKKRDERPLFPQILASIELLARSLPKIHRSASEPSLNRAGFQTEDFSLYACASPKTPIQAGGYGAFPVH
Description: as §1

[1] = system: Tau phosphorylation at Ser 396 in SH-SY5Y cells; experiment: Aβ25-35-induced Tau phosphorylation (Ser396) in SH-SY5Y cells, Western blotting; type: cell-based, human; conditions: 100 nM, inhibitors 1 hour, then Aβ25–35 6 hours, Western blot
Description: It has been implicated that GSK-3β is involved in multiple cellular processes, and its ability to hyperphosphorylate Tau protein and induce neurofibrillary tangle was intensively studied. Therefore, the cell-based assay examining Tau phosphorylation at Serine 396 represents a direct functional assay to measure the cellular activity of GSK-3β inhibitors. Compounds 7c, 7f, 7j–l and 7o–q were tested for the ability to reduce Tau phosphorylation at Ser 396 in human neuroblastoma SH-SY5Y cells. LiCl, a well-known inhibitor of GSK-3β [24], was used as a positive control in this assay. […] The Aβ-induced Tau hyperphosphorylation results in neurofibrillary tangle formation, which plays an important role in Alzheimer’s disease. […] In addition, the predictions about these compounds’ brain permeability were performed using ADME module with Discovery Studio 2.1 software package.
SH-SY5Y human neuroblastoma cells were obtained from the American Type Culture Collection (ATCC, Manassas, VA, USA). Cells were cultured in 1:1 DMEM:Ham's F12 containing 10% (v/v) fetal bovine serum (HyClone, Logan, UT, USA), 1% penicillin, and 1% streptomycin at a humidified atmosphere with 5% CO2. The medium was changed every 2 days. […] Antigen-antibody complexes were detected by the ECL Kit.

T1 sequence (P49841 whole entry): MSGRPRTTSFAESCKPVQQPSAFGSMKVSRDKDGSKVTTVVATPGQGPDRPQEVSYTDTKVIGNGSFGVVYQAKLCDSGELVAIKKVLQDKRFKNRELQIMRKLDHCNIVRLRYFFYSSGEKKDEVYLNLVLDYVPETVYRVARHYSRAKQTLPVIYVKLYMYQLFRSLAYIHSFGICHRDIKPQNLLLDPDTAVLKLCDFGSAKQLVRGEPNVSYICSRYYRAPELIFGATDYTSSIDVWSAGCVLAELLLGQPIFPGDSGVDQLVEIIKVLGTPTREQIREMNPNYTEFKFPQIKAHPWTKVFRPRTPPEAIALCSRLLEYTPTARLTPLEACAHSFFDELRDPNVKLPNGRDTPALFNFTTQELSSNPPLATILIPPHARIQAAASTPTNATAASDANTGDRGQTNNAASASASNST

IC50 (GSK-3β; 50 nM enzyme, 30 μM ATP, 2 μM substrate peptide, triplicate, mean ± SE, read-out: GSK-3β inhibitory activity IC50 (nM) ± SE): 10.2 ± 5.9 nM
GSK-3β inhibitory activity, fold increase as compared to 7h (GSK-3β; ratio of IC50 values, versus 7h): 14 fold
Selectivity for GSK-3β over other tested kinases (GSK-3β; versus PKC-epsilon, JAK2, BRAF, IKK2 and Drak2): high selectivity
inhibition at 2 µM (PKC-epsilon): 12.1%
inhibition at 2 µM (JAK2): 0.1%
inhibition at 2 µM (BRAF): 3.4%
SMILES: O=C1NC(=O)C(c2cn(CCCN3CCOCC3)c3ccc(Br)cc23)=C1c1noc2ccccc12 [7c, 3-(Benzo[d]isoxazol-3-yl)-4-(5-bromo-1-(3-morpholinopropyl)-1H-indol-3-yl)-1H-pyrrole-2,5-dione]
Effect on Aβ25-35-induced Tau phosphorylation at Ser 396 [1]: obviously reduce
